We go through six compounds from PubChem BioAssay AID1259407 (Chemical Carcinogenesis Research Information System (CCRIS), 2018).

The series concerns CCRIS mutagenicity, Ames/micronucleus/aberration tests. Put plainly: CCRIS mutagenicity studies.
Setting [1] is: Test System: AMES SALMONELLA TYPHIMURIUM, Strain/Indicator: TA98, Metabolic Activation: NONE, Method: PREINCUBATION
Setting [2] is: Test System: AMES SALMONELLA TYPHIMURIUM, Strain/Indicator: TA98, Metabolic Activation: NONE, Method: STANDARD PLATE.
The mark [3] stands for this setting: Test System: AMES SALMONELLA TYPHIMURIUM, Strain/Indicator: TA98, Metabolic Activation: RAT, LIVER, S-9, AROCLOR 1254, Method: STANDARD PLATE.
Setting [4] is: Test System: AMES SALMONELLA TYPHIMURIUM, Strain/Indicator: TA100, Metabolic Activation: NONE, Method: PREINCUBATION
[5] abbreviates: Test System: AMES SALMONELLA TYPHIMURIUM, Strain/Indicator: TA100, Metabolic Activation: NONE, Method: STANDARD PLATE.
Setting [6] is: Test System: AMES SALMONELLA TYPHIMURIUM, Strain/Indicator: TA100, Metabolic Activation: RAT, LIVER, S-9, AROCLOR 1254, Method: STANDARD PLATE.
[7] abbreviates: Test System: AMES SALMONELLA TYPHIMURIUM, Strain/Indicator: TA1535, Metabolic Activation: NONE, Method: STANDARD PLATE.
[8] abbreviates: Test System: AMES SALMONELLA TYPHIMURIUM, Strain/Indicator: TA1535, Metabolic Activation: RAT, LIVER, S-9, AROCLOR 1254, Method: STANDARD PLATE.
Where [9] appears, read: Test System: AMES SALMONELLA TYPHIMURIUM, Strain/Indicator: TA1537, Metabolic Activation: NONE, Method: STANDARD PLATE.
The mark [10] stands for this setting: Test System: AMES SALMONELLA TYPHIMURIUM, Strain/Indicator: TA1537, Metabolic Activation: RAT, LIVER, S-9, AROCLOR 1254, Method: STANDARD PLATE.
[11] abbreviates: Test System: AMES SALMONELLA TYPHIMURIUM, Strain/Indicator: TA1538, Metabolic Activation: NONE, Method: STANDARD PLATE.
[12] abbreviates: Test System: AMES SALMONELLA TYPHIMURIUM, Strain/Indicator: TA1538, Metabolic Activation: RAT, LIVER, S-9, AROCLOR 1254, Method: STANDARD PLATE.

The structures appear in SMILES notation. The source made the active and inactive calls. The rule behind the calls is not given here.

For the compound `CC1=CC(=O)C=C2CC[C@@H]3[C@H](CC[C@]4(C)C(=O)CC[C@@H]34)[C@@]12C`, the mutagenic call (End Point: IN VITRO CHROMOSOMAL ABERRATIONS, Test System: HUMAN PERIPHERAL LYMPHOCYTES, Metabolic Activation: NONE) was “inactive; negative”; the mutagenic call (End Point: IN VITRO CHROMOSOMAL ABERRATIONS, Test System: HUMAN PERIPHERAL LYMPHOCYTES, Metabolic Activation: RAT, LIVER, S-9, AROCLOR 1254) is “inactive; negative”; the mutagenic call (End Point: IN VIVO MICRONUCLEUS, Test System: BONE MARROW POLYCHROMATIC ERYTHROCYTES, Species: MOUSE, Strain/Sex: NMRI/MALE, FEMALE, Route: INTRAGASTRIC) is “inactive; negative”; the mutagenic call under setting [1] was “inactive; negative”; the mutagenic call under setting [2] was “inactive; negative”; the mutagenic call (Test System: AMES SALMONELLA TYPHIMURIUM, Strain/Indicator: TA98, Metabolic Activation: RAT, LIVER, S-9, AROCLOR 1254, Method: PREINCUBATION) was “inactive; negative”. Also, the mutagenic call runs as follows: under setting [3], “inactive; negative”; under setting [4], “inactive; negative”; under setting [5], “inactive; negative”; (Test System: AMES SALMONELLA TYPHIMURIUM, Strain/Indicator: TA100, Metabolic Activation: RAT, LIVER, S-9, AROCLOR 1254, Method: PREINCUBATION) “inactive; negative”; under setting [6], “inactive; negative”; (Test System: AMES SALMONELLA TYPHIMURIUM, Strain/Indicator: TA1535, Metabolic Activation: NONE, Method: PREINCUBATION) “inactive; negative”. Further, the mutagenic call by setting is: under setting [7], “inactive; negative”; (Test System: AMES SALMONELLA TYPHIMURIUM, Strain/Indicator: TA1535, Metabolic Activation: RAT, LIVER, S-9, AROCLOR 1254, Method: PREINCUBATION) “inactive; negative”; under setting [8], “inactive; negative”; (Test System: AMES SALMONELLA TYPHIMURIUM, Strain/Indicator: TA1537, Metabolic Activation: NONE, Method: PREINCUBATION) “inactive; negative”; under setting [9], “inactive; negative”; (Test System: AMES SALMONELLA TYPHIMURIUM, Strain/Indicator: TA1537, Metabolic Activation: RAT, LIVER, S-9, AROCLOR 1254, Method: PREINCUBATION) “inactive; negative”. For the same compound, the mutagenic call was “inactive; negative” under setting [10]; “inactive; negative” (Test System: AMES SALMONELLA TYPHIMURIUM, Strain/Indicator: TA1538, Metabolic Activation: NONE, Method: PREINCUBATION); “inactive; negative” under setting [11]; “inactive; negative” (Test System: AMES SALMONELLA TYPHIMURIUM, Strain/Indicator: TA1538, Metabolic Activation: RAT, LIVER, S-9, AROCLOR 1254, Method: PREINCUBATION); “inactive; negative” under setting [12]; “inactive; negative” (Test System: CHINESE HAMSTER V-79, Strain/Indicator: V-79 (HGPRT)/6-THIOGUANINE, Metabolic Activation: NONE). Also, the mutagenic call (Test System: CHINESE HAMSTER V-79, Strain/Indicator: V-79 (HGPRT)/6-THIOGUANINE, Metabolic Activation: RAT, LIVER, S-9, AROCLOR 1254) was “inactive; negative”.

In the case of `c1scc2c1-c1cscc1C1OC21` (stereo not drawn), the mutagenic call runs as follows: under setting [2], “active; positive”; under setting [5], “active; positive”.

Turning to `O=NN(CCCl)C(=O)NCCCl`, the mutagenic call was “active; positive (not dose related)” (End Point: In vitro micronucleus, Test System: Human lymphoblastoid TK6 cells, Metabolic Activation: None); “active; positive” under setting [7]; “active; positive” (Test System: CHINESE HAMSTER OVARY, Strain/Indicator: D422 (APRT), Metabolic Activation: NONE, Method: REPLATING); “active; positive” (Test System: CHINESE HAMSTER V-79, Strain/Indicator: V-79/6-THIOGUANINE, Metabolic Activation: NONE, Method: STANDARD PLATE).

On to `O=C(O)/C=C\Cl`, for which the mutagenic call was “active; positive” (Test System: AMES SALMONELLA TYPHIMURIUM, Strain/Indicator: TA97, Metabolic Activation: RAT, LIVER, S-9, PCB, Method: STANDARD PLATE) and “active; positive” (Test System: AMES SALMONELLA TYPHIMURIUM, Strain/Indicator: TA102, Metabolic Activation: RAT, LIVER, S-9, PCB, Method: STANDARD PLATE).

On to `Nc1nc(Cl)cc(Cl)n1`, for which the mutagenic call is “inactive; negative” (Test System: AMES SALMONELLA TYPHIMURIUM, Strain/Indicator: TA98, Metabolic Activation: HAMSTER, LIVER, S-9, AROCLOR 1254, Method: STANDARD PLATE); “inactive; negative” under setting [2]; “inactive; negative” under setting [3]; “inactive; negative” (Test System: AMES SALMONELLA TYPHIMURIUM, Strain/Indicator: TA100, Metabolic Activation: HAMSTER, LIVER, S-9, AROCLOR 1254, Method: STANDARD PLATE); “inactive; negative” under setting [5]; “inactive; negative” under setting [6]. The mutagenic call is, setting by setting: (Test System: AMES SALMONELLA TYPHIMURIUM, Strain/Indicator: TA1535, Metabolic Activation: HAMSTER, LIVER, S-9, AROCLOR 1254, Method: STANDARD PLATE) “inactive; negative”; under setting [7], “inactive; negative”; under setting [8], “inactive; negative”; (Test System: AMES SALMONELLA TYPHIMURIUM, Strain/Indicator: TA1537, Metabolic Activation: HAMSTER, LIVER, S-9, AROCLOR 1254, Method: STANDARD PLATE) “inactive; negative”; under setting [9], “inactive; negative”; under setting [10], “inactive; negative”. Also, the mutagenic call reads like this: (Test System: AMES SALMONELLA TYPHIMURIUM, Strain/Indicator: TA1538, Metabolic Activation: HAMSTER, LIVER, S-9, AROCLOR 1254, Method: STANDARD PLATE) “inactive; negative”; under setting [11], “inactive; negative”; under setting [12], “inactive; negative”; (Test System: MOUSE LYMPHOMA, Strain/Indicator: L5178Y (TK+/TK-), Metabolic Activation: NONE, Method: SUSPENSION/PLATE) “active; positive. reevaluation of results: positive”; (Test System: MOUSE LYMPHOMA, Strain/Indicator: L5178Y (TK+/TK-), Metabolic Activation: RAT, LIVER, S-9, AROCLOR 1254, Method: SUSPENSION/PLATE) “active; positive. reevaluation of results: inconclusive”.

In the case of `Nc1c(C(=O)N/N=C/c2ccccc2)[nH]c2ccccc12`, the mutagenic call is, setting by setting: (Test System: AMES SALMONELLA TYPHIMURIUM, Strain/Indicator: TA97, Metabolic Activation: NONE, Method: PREINCUBATION) “inactive; negative”; (Test System: AMES SALMONELLA TYPHIMURIUM, Strain/Indicator: TA97, Metabolic Activation: S-9 (10%), Method: PREINCUBATION) “inactive; negative”; under setting [1], “inactive; negative”; (Test System: AMES SALMONELLA TYPHIMURIUM, Strain/Indicator: TA98, Metabolic Activation: S-9 (10%), Method: PREINCUBATION) “inactive; negative”; under setting [4], “inactive; negative”; (Test System: AMES SALMONELLA TYPHIMURIUM, Strain/Indicator: TA100, Metabolic Activation: S-9 (10%), Method: PREINCUBATION) “inactive; negative”. Moreover, the mutagenic call (Test System: AMES SALMONELLA TYPHIMURIUM, Strain/Indicator: TA102, Metabolic Activation: NONE, Method: PREINCUBATION) is “inactive; negative” and the mutagenic call (Test System: AMES SALMONELLA TYPHIMURIUM, Strain/Indicator: TA102, Metabolic Activation: S-9 (10%), Method: PREINCUBATION) is “inactive; negative”.
